The values that follow come from patent US9035059B2, “Nitrogen-containing condensed heterocyclic compound” (TAISHO PHARMACEUTICAL CO., LTD., priority 2011, dated 2015).

Sequence of human MGAT2 (Q3SYC2 whole entry): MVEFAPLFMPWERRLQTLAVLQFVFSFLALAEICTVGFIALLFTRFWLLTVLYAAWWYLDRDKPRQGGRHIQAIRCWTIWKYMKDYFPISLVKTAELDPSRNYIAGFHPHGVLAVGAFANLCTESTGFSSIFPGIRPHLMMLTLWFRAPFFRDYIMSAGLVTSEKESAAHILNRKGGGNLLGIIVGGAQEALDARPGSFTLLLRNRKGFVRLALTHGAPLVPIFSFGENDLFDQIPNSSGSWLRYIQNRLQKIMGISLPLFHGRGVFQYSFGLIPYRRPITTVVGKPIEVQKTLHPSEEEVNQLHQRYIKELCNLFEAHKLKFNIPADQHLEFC

One assay has as its target human MGAT2 (Homo sapiens (Human), UniProt Q3SYC2). Description: Test Example 1: Test of MGAT2 inhibitory action (human MGAT2 enzyme fraction from Sf9 cells, free CoA detected by CPM fluorescence). Format: biochemical. The settings on record: human MGAT2 enzyme fraction expressed in Sf9 insect cells, 0.5 μg/ml, 2-monooleoyl glycerol 0.78 μM, oleoyl-CoA 5.3 μM, room temperature 20 min, listed as 10-3, read-out: Activity Value [nM] (IC50, concentration at which 50% of produced free CoA was inhibited). As for the experimental part:
The MGAT2 inhibitory action of the inventive compound was measured by the methods described in Test Examples as shown below. The MGAT enzyme activity was measured based on the amount of an indicator, free Coenzyme A (CoA) which is generated by the reaction shown below, using a sulfhydryl reactive pigment (7-diethylamino-3-(4-maleimidophenyl)-4-methylcoumarin; hereinafter, sometimes abbreviated as CPM).
A test for MGAT2 inhibitory action of test compounds was conducted in accordance with a partially modified version of the method described in John F. Lockwood et al., Am. J. Physiol. Endocrinol. Metab., 2003, 285, E927.
Bac-to-Bac Baculovirus Expression System (Life Technologies Japan) was used to express human MGAT2 in insect cells (Sf9) (Life Technologies Japan). These cells were sonicated and centrifuged at 100,000 g×1 hr to give a precipitate. The precipitate was used as a human MGAT2 enzyme fraction in this assay.
This test was conducted using a black flat-bottom 96-well plate (Corning). A buffer solution with final concentrations of 5 mM magnesium chloride, 100 mM sucrose and 100 mM Tris-HCl (pH=7.5) was prepared and test compounds prepared in various concentrations using dimethyl sulfoxide were added thereto to give a final dimethyl sulfoxide concentration of 1%. The MGAT2 enzyme fraction was added thereto to give a final concentration of 0.5 μg/ml and phosphatidylcholine, 2-monooleoyl glycerol and oleoyl-CoA were added thereto to give final concentrations of 7.5 μM, 0.78 μM and 5.3 μM, respectively, before starting a reaction. The reaction was performed at room temperature for 20 min.
After 20 min, a CPM-containing solution was added thereto to give a final concentration of 5 μM before stopping the MGAT reaction. After 1 hr, a fluorescence detector (Infinite 200 from Tecan Japan) was used to measure the CPM fluorescence value of each well (excitation 380 nm, emission 460 nm).
With `CCCCCCOc1ccc(NS(=O)(=O)c2ccc3c(c2)CCN(C(C)Cc2ccc(C(C)(C)C)cc2)C3)c(F)c1` (single isomer, unassigned) [Working Example 10-3], the IC50 was found to be 26 nM.

The assay is the same for the next values; noted with them: human MGAT2 enzyme fraction expressed in Sf9 insect cells, 0.5 μg/ml, 2-monooleoyl glycerol 0.78 μM, oleoyl-CoA 5.3 μM, room temperature 20 min, listed as 10-4, read-out: Activity Value [nM] (IC50, concentration at which 50% of produced free CoA was inhibited).
In the case of `CCCCCCOc1ccc(NS(=O)(=O)c2ccc3c(c2)CCN(C(C)Cc2ccc(C(C)(C)C)cc2)C3)c(F)c1` (single isomer, unassigned) [Working Example 10-4], the IC50 came to 39 nM.

Staying with this assay, now noted: human MGAT2 enzyme fraction expressed in Sf9 insect cells, 0.5 μg/ml, 2-monooleoyl glycerol 0.78 μM, oleoyl-CoA 5.3 μM, room temperature 20 min, listed as 10-5, read-out: Activity Value [nM] (IC50, concentration at which 50% of produced free CoA was inhibited).
For `CC(Cc1ccc(C(C)(C)C)cc1)N1CCc2cc(S(=O)(=O)Nc3ccc(CCCC4CCCC4)cc3F)ccc2C1` (single isomer, unassigned) [Working Example 10-5], the IC50 worked out at 25 nM.

Staying with this assay, now noted: human MGAT2 enzyme fraction expressed in Sf9 insect cells, 0.5 μg/ml, 2-monooleoyl glycerol 0.78 μM, oleoyl-CoA 5.3 μM, room temperature 20 min, listed as 10-6, read-out: Activity Value [nM] (IC50, concentration at which 50% of produced free CoA was inhibited).
On to `CC(Cc1ccc(C(C)(C)C)cc1)N1CCc2cc(S(=O)(=O)Nc3ccc(CCCC4CCCC4)cc3F)ccc2C1` (single isomer, unassigned) [Working Example 10-6], for which the IC50 turned out to be 44 nM.

Staying with this assay, now noted: human MGAT2 enzyme fraction expressed in Sf9 insect cells, 0.5 μg/ml, 2-monooleoyl glycerol 0.78 μM, oleoyl-CoA 5.3 μM, room temperature 20 min, listed as 10-7, read-out: Activity Value [nM] (IC50, concentration at which 50% of produced free CoA was inhibited).
For `CCCCCCCc1ccc(NS(=O)(=O)c2ccc3c(c2)CCN(C(C)Cc2ccc(C(C)(C)C)cc2)C3)c(F)c1` (single isomer, unassigned) [Working Example 10-7], the IC50 worked out at 31 nM.

Staying with this assay, now noted: human MGAT2 enzyme fraction expressed in Sf9 insect cells, 0.5 μg/ml, 2-monooleoyl glycerol 0.78 μM, oleoyl-CoA 5.3 μM, room temperature 20 min, listed as 10-8, read-out: Activity Value [nM] (IC50, concentration at which 50% of produced free CoA was inhibited).
As for `CCCCCCCc1ccc(NS(=O)(=O)c2ccc3c(c2)CCN(C(C)Cc2ccc(C(C)(C)C)cc2)C3)c(F)c1` (single isomer, unassigned) [Working Example 10-8], the IC50 stood at 62 nM.

The same assay, now with this note: human MGAT2 enzyme fraction expressed in Sf9 insect cells, 0.5 μg/ml, 2-monooleoyl glycerol 0.78 μM, oleoyl-CoA 5.3 μM, room temperature 20 min, listed as 10-11, read-out: Activity Value [nM] (IC50, concentration at which 50% of produced free CoA was inhibited).
Take `CC(Cc1ccc(C(C)(C)C)cc1)N1CCc2cc(S(=O)(=O)Nc3ccc(OCCCCCc4ccccc4)cc3F)ccc2C1` (single isomer, unassigned) [Working Example 10-11]: the IC50 stood at 80 nM.

Staying with this assay, now noted: human MGAT2 enzyme fraction expressed in Sf9 insect cells, 0.5 μg/ml, 2-monooleoyl glycerol 0.78 μM, oleoyl-CoA 5.3 μM, room temperature 20 min, listed as 10-12, read-out: Activity Value [nM] (IC50, concentration at which 50% of produced free CoA was inhibited).
On to `CC(Cc1ccc(C(C)(C)C)cc1)N1CCc2cc(S(=O)(=O)Nc3ccc(OCCCCCc4ccccc4)cc3F)ccc2C1` (single isomer, unassigned) [Working Example 10-12], for which the IC50 was 42 nM.

Still in this assay, the particulars now being: human MGAT2 enzyme fraction expressed in Sf9 insect cells, 0.5 μg/ml, 2-monooleoyl glycerol 0.78 μM, oleoyl-CoA 5.3 μM, room temperature 20 min, listed as 10-13, read-out: Activity Value [nM] (IC50, concentration at which 50% of produced free CoA was inhibited).
As for `CC(Cc1ccc(C(C)(C)C)cc1)N1CCc2cc(S(=O)(=O)Nc3ccc(OCCCC4CCCCC4)cc3F)ccc2C1` (single isomer, unassigned) [Working Example 10-13], the IC50 is 66 nM.

Staying with this assay, now noted: human MGAT2 enzyme fraction expressed in Sf9 insect cells, 0.5 μg/ml, 2-monooleoyl glycerol 0.78 μM, oleoyl-CoA 5.3 μM, room temperature 20 min, listed as 10-14, read-out: Activity Value [nM] (IC50, concentration at which 50% of produced free CoA was inhibited).
On to `CC(Cc1ccc(C(C)(C)C)cc1)N1CCc2cc(S(=O)(=O)Nc3ccc(OCCCC4CCCCC4)cc3F)ccc2C1` (single isomer, unassigned) [Working Example 10-14], for which the IC50 is 106 nM.

The assay is the same for the next values; noted with them: human MGAT2 enzyme fraction expressed in Sf9 insect cells, 0.5 μg/ml, 2-monooleoyl glycerol 0.78 μM, oleoyl-CoA 5.3 μM, room temperature 20 min, read-out: Activity Value [nM] (IC50, concentration at which 50% of produced free CoA was inhibited).
Turning to `CCCCCCOc1ccc(NS(=O)(=O)c2ccc3c(c2)CCN(C(=O)Nc2ccc(CCCC)cc2)C3)c(F)c1` [14-3], the IC50 was found to be 76 nM.

On to `CCCCCCOc1ccc(NS(=O)(=O)c2ccc3c(c2)CCN(C(=O)Nc2ccc(C(C)(C)C)cc2)C3)c(F)c1` [14-4], for which the IC50 came to 98 nM.

Regarding `COc1cc(F)ccc1NS(=O)(=O)c1ccc2c(c1)CN(C(=O)Nc1ccc(C(C)(C)C)cc1)C2` [14-9], the IC50 was found to be 168 nM.

Consider `COc1ccc(NS(=O)(=O)c2ccc3c(c2)CN(C(=O)Nc2ccc(C(C)(C)C)cc2)C3)c(F)c1` [14-16], for which the IC50 is 164 nM.

`CCCCCOc1ccc(NS(=O)(=O)c2ccc3c(c2)CN(C(=O)Nc2ccc(C(C)(C)C)cc2)C3)c(F)c1` [14-18]: the IC50 is 147 nM.

`COc1cc(F)cc(F)c1NS(=O)(=O)c1ccc2c(c1)CN(C(=O)Nc1ccc(C(C)(C)C)cc1)C2` [14-21]: the IC50 was found to be 193 nM.

For `CC(C)(C)c1ccc(NC(=O)N2CCc3cc(S(=O)(=O)Nc4ccc(OCCC5CCOCC5)cc4F)ccc3C2)cc1` [14-35], the IC50 amounted to 178 nM.

In the case of `O=C(NC1CCCCC1)N1CCc2cc(S(=O)(=O)Nc3ccc(CCCC4CCCC4)cc3F)ccc2C1` [14-36], the IC50 came to 69 nM.

With `CCCCCCCOc1ccc(NS(=O)(=O)c2ccc3c(c2)CCN(CCc2ccc(C(C)(C)C)cc2)C3)c(F)c1` [17-1, 2-[2-(4-tert-Butylphenyl)ethyl]-N-[2-fluoro-4-(heptyloxy)phenyl]-1,2,3,4-tetrahydroisoquinoline-6-sulfonamide], the IC50 was 40 nM.

`CCCCCCCCOc1ccc(NS(=O)(=O)c2ccc3c(c2)CCN(CCc2ccc(C(C)(C)C)cc2)C3)c(F)c1` [17-2]: the IC50 amounted to 45 nM.

Consider `CC(C)(C)c1ccc(CCN2CCc3cc(S(=O)(=O)Nc4ccc(OCCCCCc5ccccc5)cc4F)ccc3C2)cc1` [17-5], for which the IC50 was determined as 24 nM.

Turning to `CC(C)(C)c1ccc(CCN2CCc3cc(S(=O)(=O)Nc4ccc(OCCCC5CCCCC5)cc4F)ccc3C2)cc1` [17-6], the IC50 was 39 nM.

`CC(C)(C)c1ccc(CCN2CCc3cc(S(=O)(=O)Nc4ccc(OCCC5CCOCC5)cc4F)ccc3C2)cc1` [17-7]: the IC50 was 79 nM.

Take `CCCCCCOc1ccc(NS(=O)(=O)c2ccc3c(c2)CN(C(=O)Nc2ccc(C(C)(C)C)cc2)C3)c(F)c1` [18-6]: the IC50 was 43 nM.

Consider `CCCCCCCCOc1ccc(NS(=O)(=O)c2ccc3c(c2)CN(C(=O)Nc2ccc(C(C)(C)C)cc2)C3)c(F)c1` [18-7], for which the IC50 stood at 7 nM.

As to `CC(C)(C)c1ccc(NC(=O)N2Cc3ccc(S(=O)(=O)Nc4ccc(OCC5CCCCC5)cc4F)cc3C2)cc1` [18-10], the IC50 is 230 nM.

With `CC(C)(C)c1ccc(NC(=O)N2Cc3ccc(S(=O)(=O)Nc4ccc(OCCC5CCCCC5)cc4F)cc3C2)cc1` [18-11], the IC50 came to 29 nM.

With `CC(C)(C)c1ccc(NC(=O)N2Cc3ccc(S(=O)(=O)Nc4ccc(OCCCC5CCCCC5)cc4F)cc3C2)cc1` [18-12], the IC50 was 26 nM.

As to `CC(C)(C)c1ccc(NC(=O)N2Cc3ccc(S(=O)(=O)Nc4ccc(OCCc5ccccc5)cc4F)cc3C2)cc1` [18-14], the IC50 was found to be 127 nM.

As for `CC(C)(C)c1ccc(NC(=O)N2Cc3ccc(S(=O)(=O)Nc4ccc(OCCCc5ccccc5)cc4F)cc3C2)cc1` [18-15], the IC50 is 56 nM.

Take `CC(C)(C)c1ccc(NC(=O)N2Cc3ccc(S(=O)(=O)Nc4ccc(OCCCCCc5ccccc5)cc4F)cc3C2)cc1` [18-16]: the IC50 worked out at 10 nM.

On to `CC(C)(C)c1ccc(NC(=O)N2Cc3ccc(S(=O)(=O)Nc4ccc(OCCOc5ccccc5)cc4F)cc3C2)cc1` [18-18], for which the IC50 turned out to be 136 nM.

Take `CC(C)(C)c1ccc(NC(=O)N2Cc3ccc(S(=O)(=O)Nc4ccc(OCCOc5ccc(F)cc5)cc4F)cc3C2)cc1` [18-19]: the IC50 is 125 nM.

On to `CC(C)(C)c1ccc(NC(=O)N2Cc3ccc(S(=O)(=O)Nc4ccc(OCCOc5cccc(C(F)(F)F)c5)cc4F)cc3C2)cc1` [18-21], for which the IC50 came to 59 nM.

For the compound `COc1ccc(OCCOc2ccc(NS(=O)(=O)c3ccc4c(c3)CN(C(=O)Nc3ccc(C(C)(C)C)cc3)C4)c(F)c2)cc1` [18-22], the IC50 worked out at 120 nM.

In the case of `CC(C)(C)c1ccc(NC(=O)N2Cc3ccc(S(=O)(=O)Nc4ccc(OCCCOc5ccccc5)cc4F)cc3C2)cc1` [18-23], the IC50 was found to be 92 nM.

For the compound `CC(C)(C)c1ccc(NC(=O)N2Cc3ccc(S(=O)(=O)Nc4ccc(OCCCOc5cccc(Cl)c5)cc4F)cc3C2)cc1` [18-24], the IC50 was found to be 62 nM.

Regarding `CC(C)(C)c1ccc(NC(=O)N2Cc3ccc(S(=O)(=O)Nc4ccc(OCCCCOc5ccccc5)cc4F)cc3C2)cc1` [18-25], the IC50 came out at 33 nM.
